A word on the IC50: it is the concentration at which inhibition is half-maximal. Broadly, the AUC(0-inf) is total exposure, with the tail of the curve extrapolated. As a reminder, the AUC(0-t) is the area under the concentration-time curve up to a stated or last time point. By Cmax is commonly meant the highest concentration seen after dosing. One may read the half-life as how long it takes for the measured level to halve.

This note sets out measurements from patent US20230295213A1, “CD73 INHIBITORS AND PHARMACEUTICAL USES THEREOF” (RISEN (SUZHOU) PHARMA TECH CO., LTD., priority 2018, published 2023).

Where two headings read alike, the source gives them in different places.

For one data set, the target named is CD73 (Homo sapiens (Human), UniProt P21589). The data set is described as follows: CD73 cellular assay (T cell stimulation assay). The following applies: human T cells, anti-CD3/CD28 stimulated, AMP + EHNA, 72 hours. It is filed as cell-based. On the procedure: Procedures for T cell stimulation assay were the following: Day 1, coating the plate: diluting anti-CD3 to 1 μg/mL with sterile PBS; coating 96 well flat bottom tissue culture plates (Corning #3599) with 50 uL of diluted anti-CD3, centrifuging (1000 rpm) for 1 min; sealing the plate and incubating the plate at 4° C. overnight for antibody crosslinking.
Sequence of CD73 (P21589 27-574): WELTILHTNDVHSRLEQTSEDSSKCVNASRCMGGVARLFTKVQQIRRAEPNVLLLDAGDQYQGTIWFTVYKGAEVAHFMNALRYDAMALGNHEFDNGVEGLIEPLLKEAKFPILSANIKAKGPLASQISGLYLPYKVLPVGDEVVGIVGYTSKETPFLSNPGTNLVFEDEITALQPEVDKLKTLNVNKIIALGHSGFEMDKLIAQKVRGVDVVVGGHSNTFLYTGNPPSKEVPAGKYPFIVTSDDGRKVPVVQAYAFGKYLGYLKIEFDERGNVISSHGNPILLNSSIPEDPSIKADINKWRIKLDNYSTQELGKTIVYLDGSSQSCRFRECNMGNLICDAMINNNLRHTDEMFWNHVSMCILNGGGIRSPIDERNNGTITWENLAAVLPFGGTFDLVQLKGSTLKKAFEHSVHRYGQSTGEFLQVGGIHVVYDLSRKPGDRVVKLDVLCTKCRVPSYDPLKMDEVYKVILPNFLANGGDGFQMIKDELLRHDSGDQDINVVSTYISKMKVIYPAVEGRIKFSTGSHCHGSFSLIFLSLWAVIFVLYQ
Day 2, human T cell seeding: (a) washing the coated plate (from Day 1) with sterilized PBS buffer (2×100 uL); (b) re-suspending T cells and adjusting cell density to 0.5×10^6 cells/mL with growth media (X-VIVO 15+1% Pen/strep+1% glutamine), and seeding 100 μL/well (50,000 cells/well) in 96-well plates; (c) diluting CD28 antibody for 8x working concentration (8 μg/mL) with growth media, giving 1 μg/mL of the final concentration, followed by addition of CD28 antibody (25 μL) to cell plate; incubating the plates under 5% CO2 at 37° C. for 60 min; (d) adding compound (25 μL, 8x dilution with growth media) to cell plate, and incubating the plates under 5% CO2 at 37° C. for 60 min; (e) adding AMP (25 μL) and EHNA (25 μL, 8x dilution with growth media) to cell plate; (f) incubating the plates under 5% CO2 at 37° C. for 72 hours.
Day 5, collecting cell growth media and testing cell proliferation: (a) centrifuging the cell plate (1,000 rpm) for 5 min; (b) harvesting 150 μL of the cell culture media from each well to 96 well plate, followed by measurement of IFN-r expression by ELISA test; (c) taking a portion of the cell culture supernatant for cytokine analysis, removing the remaining supernatant, followed by addition of fresh growth media (X-VIVO 15+1% Pen/strep+1% glutamine, 100 μL); (d) adding Celltiter-Glo solution (50 μL) into each well for the measurement of cell proliferation by: (e) incubating the plates at room temperature for 10 min on a shaker; (f) transferring 100 μL solution into 96-well white plate and taking the readout of the Celltiter-Glo data using a TECAN Reader.

Data set [1] deals with Recombinant human 5′-nucleotidase (hCD73) (Homo sapiens (Human), UniProt P21589). As to the kind of experiment: CD73 enzyme inhibition assay (hCD73, AMP substrate, PiColorLock Gold phosphate detection). It is filed as biochemical. The conditions noted are these: hCD73 1 nM solution, AMP 60 μM solution, 37° C. 20 min, absorbance 635 nm. On the procedure:
Test compound solution preparation: Stock solution of a test compound was prepared in DMSO at 10 mM concentration. A series of preset 10-concentration solutions of a test compound were prepared by diluting the stock solution in 5-fold gradient dilution with DMSO.
Assay buffer (lx): 20 mm Tris, 25 mM NaCl, 1 mM MgCl2, pH 7.5, 0.005% Tween-20 (freshly prepared, and ready for use).
An aliquot of 0.25 μL of compound solution or DMSO (blank control) was added to each test well of a micro well plate. Recombinant human 5′-nucleotidase (hCD73) was diluted to 1 nM in assay buffer; and an aliquot of 25 μL hCD73 (1 nM) solution was added to the corresponding wells of the plate. The contents of the well were well-mixed, and the plate was covered with sealing film, centrifuged at 1000 rpm for 30 sec., followed by incubation at room temperature for 15 min. AMP, the substrate, was diluted to 60 μM concentration in the assay buffer. To each reaction well was added 25 μL of AMP solution. After mixing well, the plate was covered with sealing film, centrifuged at 1000 rpm for 30 sec., and incubated at 37° C. for 20 min. The absorbance signal (end point) was measured on SPARK plate reader at 635 nm (See PiColorLock™ Gold Phosphate Detection System (Abcam) test kit for reference).
The reaction wells containing CD73 enzyme, substrate AMP and DMSO (no compound) were used as positive control, and the reaction wells containing substrate AMP and DMSO but no CD73 enzyme were used as negative control. The percent (%) inhibition at each concentration of compound was calculated based on and relative to the signal in the High and Low control wells contained within each assay plate. The High control wells were considered as 0% inhibition, and the low control wells, which didn't contain any compound but rather DMSO (final concentration=0.5%), as 100% inhibition. IC50 values were obtained using GraphPad Prism software.

Data set [2] is described as follows: Pharmacokinetic evaluation in ICR mice, intravenous. The conditions noted are these: mouse; ICR male mice, 1.0 mg/kg intravenous, plasma. It is filed as in vivo. On the procedure: A test compound (1.0 mg/kg) was administered to fasted ICR male mice via intravenous injection, and blood samples were collected at time points of 0.08, 0.25, 0.5, 1, 2, 4, 6, 8 and 24 h after the administration. Plasma sample was separated by centrifugation (8000 rpm) and stored at −80° C. until the sample was analyzed. Concentrations of the test compound in the plasma were determined by HPLC-MS/MS: the plasma was dispensed into appropriate tubes containing internal standard and methanol or acetonitrile. The tubes were mixed vigorously for 3 minutes to achieve deproteinization and then centrifuged at 8000 rpm for 5 minutes. The supernatant was transferred to an autosampler vial, injected into the chromatographic system, and quantified on MS/MS detector. Pharmacokinetic parameters including AUC0-t, Cmax, Tmax, t1/2, MRT, Cl and Vd were calculated using WinNonlin 6.3 software. Table 3 summarizes key PK parameters for test compounds (AUC(0-t): the area under the curve from time 0 to time t; AUC(0-∞): the area under the curve from time 0 to infinity; t1/2: Half-life; CL: clearance; C0: the concentration of drug in blood if the drug molecules enter the circulation and are distributed immediately (i.e., at time 0)).

The mark [3] stands for this setting: read-out: EC50, CTG (CellTiter-Glo, cell proliferation).
[4] abbreviates: read-out: EC50, IFN-γ (ELISA, indicator for T-cell activity).

Sequence of Recombinant human 5′-nucleotidase (hCD73) (P21589 27-574): as above

On to `O=P(O)(O)CP(=O)(O)OC[C@H]1O[C@@H](n2cnc3c(N4CCC5(CCCCC5)C4)nc(Cl)nc32)C(O)C1O` (stereo partly drawn) [Compound b, reference compound], for which the values for the EC50 on CD73 (setting [3]) and at CD73 (setting [4]) were 7.53 nM and 14.2 nM, respectively.
For `O=P(O)(O)CP(=O)(O)OC[C@H]1O[C@@H](n2cnc3c(N4CC5(CCc6ccccc65)C4)nc(Cl)nc32)C(O)C1O` (stereo partly drawn) [d-1] the same measures were 3.13 nM and 1.45 nM.
Take `O=P(O)(O)CP(=O)(O)OC[C@H]1O[C@@H](n2cnc3c(N4CC5(CCCc6ccccc65)C4)nc(Cl)nc32)[C@@H](O)C1O` (stereo partly drawn) [d-12]: the IC50 in data set [1] came to 0.4 nM. In data set [2], this compound showed an AUC(0-inf) of 9900 ng·h/mL, an AUC(0-t) of 9860 ng·h/mL, a Cmax of 8560 ng/mL and a half-life of 0.949 h.
For the compound `O=P(O)(O)CP(=O)(O)OC[C@H]1O[C@@H](n2cnc3c(N4CC5(CCCC5)c5ccccc54)nc(Cl)nc32)[C@@H](O)C1O` (stereo partly drawn) [d-13], the IC50 in data set [1] was 1.5 nM. Further, in data set [2], the area under the curve AUC(0-inf) turned out to be 298000 ng·h/mL, the AUC(0-t) was determined as 108000 ng·h/mL, the Cmax is 11600 ng/mL and the half-life was 39.5 h.
Regarding `O=P(O)(O)CP(=O)(O)OC[C@H]1O[C@@H](n2cnc3c(N4CC5(CCC5)c5ccccc54)nc(Cl)nc32)[C@@H](O)C1O` (stereo partly drawn) [d-20], the IC50 in data set [1] stood at 1.29 nM. In data set [2], the AUC(0-inf) stood at 121000 ng·h/mL, the AUC(0-t) turned out to be 94000 ng·h/mL, the Cmax worked out at 15600 ng/mL and the half-life is 12.2 h.
The corresponding values for `O=P(O)(O)CP(=O)(O)OC[C@H]1O[C@@H](n2cnc3c(N4CCC5(CC4)Cc4ccccc4C5)nc(Cl)nc32)[C@@H](O)C1O` (stereo partly drawn) [d-21] are 1.42 nM, 7450 ng·h/mL, 7430 ng·h/mL, 12200 ng/mL and 0.898 h.
Take `O=P(O)(O)CP(=O)(O)OC[C@H]1O[C@@H](n2cnc3c(N4CCC(c5ccccc5)(c5ccccc5)C4)nc(Cl)nc32)C(O)C1O` (stereo partly drawn) [d-33]: the IC50 in data set [1] worked out at 1.76 nM. The EC50 was determined as 4.07 nM at CD73 (setting [3]) and 2.53 nM at CD73 (setting [4]).
